Test results from article PMC9140920 (International Journal of Molecular Sciences, 2022).
Entries after “also recorded” stand apart in the source; their conditions may differ. Where two headings read alike, the source gives them in different places.

Experiments:
TM4 mouse Sertoli cells = assay: Cell growth and viability (MTT), dose-response of the drugs alone; assay type: cell-based; conditions: for IC20: read-out: IC20 ± SE; for IC80: read-out: IC80 ± SE
Procedure: Cells were maintained in standard conditions for 24 h before treatments. […] All azoles were dissolved in DMSO. In an effort to avoid a possible experimental artifact with vehicles, experiments were performed including control groups in which the effect of the drug vehicle alone was tested (vehicle control, vCTR). […] For experiments with N-acetylcysteine (NAC), 24 h after seeding cells were pre-treated for 1 h with the ROS inhibitor (1 mM) and then maintained in co-treatment with azoles for 48 h.
TM4 cells were seeded at a density of 1 × 10^4/cm^2, and cultures incubated at standard conditions in the presence or the absence of azoles to reach final concentrations ranging from 0.078 µM up to 320 µM in culture medium. Cell growth and viability were assessed at 24 and 48 h by Trypan-blue exclusion assay and MTT (3-(4,5-dimethylthiazol-2-yl)-2,5-diphenyl-2H-tetrazolium-bromide) colorimetric method (Sigma-Aldrich, St. Louis, MO, USA), quantifying the metabolic efficiency of living cells.
The Interaction Index (II) was calculated, as previously described, by modifying the Chou and Talalay equation [78]. Specifically, Chou and Talalay’s median-effect method estimates the IC50 and the sigmodicity coefficient m values using linear regression of the linearised dose-response curve.
For a two-drug assay, II is the summation of the ratios of the doses (Dn) of the drugs in combination, and the concentrations of the two drugs alone (IDx,n), to obtain a fraction x of cells affected by drug combinations (Fa). IDx,n is estimated by the following equation:(1) IDx,n=IC50(Fa/1−Fa)^1/mn

[1] = cited from earlier work
TM4 cells = assay: Annexin V-FITC / propidium iodide assay of apoptosis and necrosis; assay type: cell-based, mouse; conditions: for apoptosis induction / cell death: 48 h, annexin V/PI, vs vCTR
Procedure: Cells were maintained in standard conditions for 24 h before treatments. […] All azoles were dissolved in DMSO. In an effort to avoid a possible experimental artifact with vehicles, experiments were performed including control groups in which the effect of the drug vehicle alone was tested (vehicle control, vCTR). In these experimental conditions, we excluded any negative effects of DMSO that is biocompatible with no biological effect per se. For experiments with N-acetylcysteine (NAC), 24 h after seeding cells were pre-treated for 1 h with the ROS inhibitor (1 mM) and then maintained in co-treatment with azoles for 48 h.
Treated and control cells (vCTR) (1 × 10^6) were collected; after washing in ice-cold PBS, samples were resuspended in 1 mL of binding buffer (10 mM HEPES, 140 mM NaCl, and 2.5 mM CaCl2, at pH 7.4) containing 10 µg/mL Annexin V-FITC and 1 µg/mL PI. After staining (1 h incubation at room temperature), cells were then washed and subsequently analysed using an FACS Calibur instrument (BD Instruments Inc., San José, CA, USA). Cells treated with 25 µM Etoposide (Eto) for 24 h were used as a positive control for apoptosis induction. Data from 10,000 events per sample were collected and analysed using an FACS Calibur instrument (BD Instruments Inc., San José, CA, USA ) equipped with cell cycle analysis software (Modfit LT for Mac V3.0) in order to calculate the percentages of apoptotic and necrotic cells.

C-PARP1 in TM4 cells = assay: Western blot of cleaved PARP1 (C-PARP1); assay type: cell-based, mouse; conditions: 48 h exposure, ratio of cleaved PARP1 to total PARP1, vs vCTR
Procedure: The protein extracts were run on a 10% SDS-PAGE and transferred onto PVDF filters and maintained at room temperature (RT) for 2 h in 5% non-fat dry milk diluted in TBST (containing 0.1% Tween-20). After washing, membranes were incubated O/N at 4 °C with the primary antibody anti-PARP1 (Cell Signaling, Danvers, MA, USA) diluted to 1:1000 in 1% non-fat dry milk in TBST. After washing, PVDF filters were incubated for 1 h at RT with the anti-rabbit (1:5000) HRP-conjugated secondary antibody (Immunological Sciences, by Società Italiana Chimici, Rome, Italy). ECL West Pico Plus chemiluminescent substrate was used to detect signals using a ChemiDoc XRSplus imaging system (Bio-Rad Laboratories, Hercules, CA, USA). The optical densities of blot bands were quantified using ImageJ software (US National Institutes of Health, Bethesda, MD, USA); the graph values represent the ratios of cleaved PARP1 to total PARP1. ß-actin was used as loading control.

[2] = system: ROS production in TM4 cells; assay: Intracellular ROS detection (DCFH-DA fluorescence); assay type: cell-based, mouse; conditions: 3 h of incubation, vs vCTR
Procedure: The intracellular ROS production was detected by using 2′,7′-dichlorofluorescein diacetate (DCFH-DA) (Molecular Probes, Eugene, OR, USA), as previously reported. In brief, after 30 min and 3 h of treatments, samples were incubated with 1 µM DCFH-DA at 37 °C for 30 min. Subsequently, cells were collected and twice washed in ice-cold PBS; samples were then analysed using flow cytometry to detect the presence of intracellular ROS at the wavelengths of 502 and 524 nm, for the excitation and the emission, respectively; the fluorescence intensity was detected with a Perkin Elmer LS-50B spectrofluorometer. Cells treated with 500 µM tert-butyl hydroperoxide (t-BHP) for 1.5 h were used as a positive control for ROS generation.

[3] = cited from earlier work; remark: listed apart in the source
ΔΨm in TM4 cells = assay: Mitochondrial membrane potential (ΔΨm) by JC-1 flow cytometry; assay type: cell-based, mouse; conditions: 3 h of incubation, JC-1, vs vCTR
Procedure: Variations of the ΔΨm in samples exposed to azoles for 3 h were assessed using the lipophilic cation dye JC-1, as previously reported. Cells (1 × 10^6 per sample) were stained for 30 min at 37 °C in a humidified atmosphere, with 3 µM JC-1 (Molecular Probes, Eugene, OR, USA) and collected; after washing in PBS, cells were analysed using flow cytometry. To assure a positive control for the abatement of the ΔΨm, the cells were cultured in the presence of […] rotenone (Sigma-Aldrich, St. Louis, MO, USA) for 1 h at standard conditions, and then incubated with the potentiometric dye as described above. Experiments were performed in triplicate and analysed by an FACS Calibur instrument (BD Instruments Inc., San José, CA, USA). The fluorescent signals from JC-1 monomers or aggregates were detected through the FL-1 (525 ± 5 nm) and FL-2 bandpass filters (575 ± 5 nm), respectively; the forward and side scatter channels gated a minimum of 1 × 10^4 cells on the major population of normal-sized cells. ΔΨm data assessment was performed by the Cell Quest software (BD Instruments Inc., San José, CA, USA).

[4] = system: antioxidant enzymes in TM4 cells; assay: Antioxidant enzymatic activity assays (SOD, CAT, GPx, GR, GST); assay type: cell-based, mouse
Procedure: The antioxidant enzymatic activities were performed spectrophotometrically, as previously described. Briefly, after 3 h of incubation with azoles, cells were washed in ice-cold PBS, resuspended in buffer containing 50 mM Tris–HCl (pH 7.4), 1% (v/v) Triton X-100, 1 mM EDTA, and then disrupted by three freeze-thawing cycles. After centrifugation (17,000 g, 10 min, 4 °C), the supernatants were collected for protein quantification and subsequently analysed.
The glutathione reductase (GR) activity was evaluated spectrophotometrically by measuring NADPH oxidation (340 nm at 25 °C). The reaction mix contained 50 mM potassium phosphate buffer (pH 7.0), 1 mM GSSG, 0.2 mM NADPH, 1 mM EDTA, and the adequate protein amount.
Total glutathione peroxidase (GPx) activity (se-dependent and se-independent) of each cell extract was assayed spectrophotometrically by following the NADPH oxidation (340 nm). The assay mixture contained 50 mM potassium phosphate buffer (pH 7.0), 1 mM GSH, 0.01 U/mL GSH reductase, 1 mM EDTA, 0.2 mM NADPH, 70 µM t-BHP, and the adequate amount of the protein extract. The glutathione transferase (GST) activity was evaluated by determining the GSH conjugation rate to 1-chloro-2,4- dinitrobenzene at 340 nm. The reaction mixture was prepared with 0.1 M potassium phosphate buffer (pH 6.5), 2 mM GSH, 1 mM 1-chloro-2,4-dinitrobenzene, and a determined amount of the supernatants.
The catalase (CAT) activity was evaluated, by monitoring at 240 nm its 10-millimolar decomposition. One unit was defined as 1 µmol of H2O2 reduced/min at 25 °C.
The superoxide dismutase (SOD) activity was determined using a colourimetric activity assay (ThermoFisher Scientific—Life Technologies Corp, Carlsband, CA, USA). The assay was conducted according to manufacturer’s instructions; briefly, it measures all types of SOD activity (including Cu/Zn, Mn, and FeSOD). Samples were resuspended in specific coloured diluent and added to a 96-well microplate. […] SOD-specific activity was expressed as U/mg protein, while the specific activity of all the other enzymes analysed was expressed as nmol/min/mg protein.

GSH in TM4 cells = assay: GSH and GSSG intracellular content (colourimetric assay); assay type: cell-based, mouse; conditions: 3 h of incubation, vs vCTR
Procedure: GSH and GSSG intracellular contents were detected by using a colourimetric assay (ThermoFisher Scientific—Life Technologies Corp, Carlsband, CA, USA). The analyses were performed according to the manufacturer’s instructions after treatments with azoles at 3 h of incubation; in brief, cell lysates were prepared in ice-cold 5% 5-sulfo-salicylic acid dehydrate (Sigma-Aldrich, St. Louis, MO, USA), and subsequently resuspended in the supplied diluent before adding them into a 96-well microplate. After promptly adding substrate, the reaction with the free thiol group of GSH initiates, producing a highly coloured product. The relative absorbance was detected at 405 nm. Assays were performed at least in triplicate for the GSH and the GSSG content detection. To determine oxidised glutathione content, 2-vinylpyridine (2-VP) (Sigma-Aldrich, St. Louis, MO, USA) was added to block free GSH or other thiols contained in each sample; the specific concentration of the GSSG was determined by performing a 2-VP-treated samples standard curve.

[5] = set-up: method as in PMID 42148393; conditions: cattle; cited from earlier work
[6] = Mus musculus, TM4 cells, 48 h of exposure, drug alone, 20% fraction of cells affected (Fa), non-linear fitting
[7] = Mus musculus, TM4 cells, 48 h of exposure, drug alone, 80% fraction of cells affected (Fa), non-linear fitting

Q: With OC(Cn1cncn1)(Cn1cncn1)c1ccc(F)cc1F [FCZ, fluconazole] as the compound, how does the “IC20 ± SE” value (TM4 mouse Sertoli cells; TM4 cells, 48 h of exposure, drug alone, 20% fraction of cells affected (Fa), non-linear fitting) read?
A: Not detectable

Q: What about the “IC50 ± SE” value (TM4 mouse Sertoli cells; TM4 cells, 48 h of exposure, drug alone, 50% fraction of cells affected (Fa), non-linear fitting) of the same compound?
A: Not detectable

Q: What about the “IC80 ± SE” value (TM4 mouse Sertoli cells; TM4 cells, 48 h of exposure, drug alone, 80% fraction of cells affected (Fa), non-linear fitting) of the same compound?
A: Not detectable

Q: And the cytotoxic effects (TM4 mouse Sertoli cells; TM4 cells, up to 320 µM, individually or in combination)?
A: no cytotoxic effects

Q: Which “log Kow (log octanol-water partition coefficient)” value [1] does the source give for Clc1ccc(COC(Cn2ccnc2)c2ccc(Cl)cc2Cl)c(Cl)c1 (stereo not drawn) [MCZ, miconazole] here?
A: 6.35

Q: What about the “apoptosis induction / cell death” value (TM4 cells) of the same compound?
A: a level of apoptosis-induction occurred

Q: And the C-PARP1 protein levels (C-PARP1 in TM4 cells)?
A: significantly increased

Q: What about the “increase in ROS production” value [2] of the same compound?
A: ~ 1.4 fold

Q: And the IC20 (TM4 mouse Sertoli cells; [6])?
A: 8.6 ± 0.6 µM

Q: And the IC80 (TM4 mouse Sertoli cells; [7])?
A: 138 ± 9.8 µM

Q: What does the source list for CC(=O)N1CCN(c2ccc(OCC3COC(Cn4ccnc4)(c4ccc(Cl)cc4Cl)O3)cc2)CC1 (stereo not drawn) [KCZ, ketoconazole]?
A: plasma concentration ([3]; human subjects, after treatment with 400 mg/day therapy): 24.89 µM; systemic absorption after topical administration ([3]; human, topical KCZ): little systemic absorption; apoptosis induction / cell death (TM4 cells): a level of apoptosis-induction occurred; C-PARP1 protein levels (C-PARP1 in TM4 cells): significantly increased; mean intensity of red-orange fluorescence (MFI) of ΔΨm high population (ΔΨm in TM4 cells): increases in MFI; increase in ROS production [2]: ~ 1.7 fold; IC50 (TM4 mouse Sertoli cells; Mus musculus, TM4, 48 h, TM4 cells, 48 h of exposure, drug alone, 50% fraction of cells affected (Fa), non-linear fitting, read-out: IC50 ± SE): ~73 µM; IC20 (TM4 mouse Sertoli cells; [6]): 18.3 ± 2.4 µM; IC80 (TM4 mouse Sertoli cells; [7]): 293 ± 38.1 µM; IC50 (TM4 mouse Sertoli cells; TM4 cells, 48 h of exposure, drug alone, 50% fraction of cells affected (Fa), non-linear fitting, read-out: IC50 ± SE): 73.2 ± 9.5 µM

Q: Which results are given for CCCN(CCOc1c(Cl)cc(Cl)cc1Cl)C(=O)n1ccnc1 [PCZ, prochloraz]?
A: apoptosis induction / cell death (TM4 cells): no significant differences; also recorded: not able to induce cell death; SOD/(GPx + CAT) ratio ([4]; 3 h of exposure, vCTR = 0.46 ± 0.067): 0.0972 ± 0.019; GST activity ([4]; 3 h of incubation, vs controls): substantially reduced; GR/(GPx + GST) ratio ([4]; 3 h of incubation, vs vCTR): positive and significant shift; intracellular GSH content (GSH in TM4 cells): only a slight decrease; mean intensity of red-orange fluorescence (MFI) of ΔΨm high population (ΔΨm in TM4 cells): increases in MFI; increase in ROS production [2]: ~ 1.7 fold; residues in edible tissues (moderate bioaccumulation) [5]: ≥ 0.01 mg/kg; IC20 (TM4 mouse Sertoli cells; Mus musculus, TM4, 48 h): 18.5 ± 3.9 µM; IC50 (TM4 mouse Sertoli cells; Mus musculus, TM4, 48 h, read-out: IC50 ± SE, TM4 cells, 48 h of exposure, drug alone, 50% fraction of cells affected (Fa), non-linear fitting): ~73 µM; IC80 (TM4 mouse Sertoli cells; Mus musculus, TM4, 48 h): 295 ± 62.3 µM; IC50 (TM4 mouse Sertoli cells; read-out: IC50 ± SE, TM4 cells, 48 h of exposure, drug alone, 50% fraction of cells affected (Fa), non-linear fitting): 73.8 ± 15.6 µM

Q: With CC(=O)N[C@@H](CS)C(=O)O [NAC, N-acetylcysteine] as the compound, how does the “effect on KCZ- and PCZ/KCZ-induced apoptosis and necrosis” value (TM4 cells; co-incubation for 48 h with 1 mM NAC) read?
A: significantly reduced
